In patent US20250296959A1, “B7-H3 TARGETING PEPTIDES AND CONSTRUCTS THEREOF” (Mariana Oncology Inc., priority 2024, published 2025):
pKd: −log10 of the molar value. Read-outs that look alike come from different tables or passages of the source. Starred links: 1 amine or outer side, 2 acyl side, 3 side chain; linkers in the order of their positions; H or OH if unused. Positions of bridges follow the written chain, without caps; N, C: chain ends. Non-standard residues stand in square brackets, D forms with d. Residues, ends and D or L forms follow the SMILES beside them. Groups on a side chain read outwards from the residue. *: point of attachment. Ala(piperidin-4-yl) = O=C([C@H](CC1CCN([*:3])CC1)N[*:1])[*:2]; DOTA = O=C(O)CN1CCN(CC(=O)O)CCN(CC(=O)*)CCN(CC(=O)O)CC1; Phe(4-COOH) = N[C@@H](Cc1ccc(C(=O)O)cc1)C(=O)O; Trp(5-F) = N[C@@H](Cc1c[nH]c2ccc(F)cc12)C(=O)O; γGlu = O=C(O)[C@H](CCC(=O)[*:2])N[*:1]; 1Nal = N[C@@H](Cc1cccc2ccccc12)C(=O)O; Ala(4-THP) = N[C@@H](CC1CCOCC1)C(=O)O; X3 = O=C([C@H](CCC1CCC1)N[*:1])[*:2]; Val(3-OH) = CC(C)(O)[C@H](N)C(=O)O; 4Pal = N[C@@H](Cc1ccncc1)C(=O)O; aThr = C[C@H](O)[C@H](N)C(=O)O; Chg = N[C@H](C(=O)O)C1CCCCC1; PEG4 = NCCOCCOCCOCCOCCC(=O)O; Tle = CC(C)(C)[C@H](N)C(=O)O; hLeu = CC(C)CC[C@H](N)C(=O)O

Key:
[1] = tested on: Calu-6 cell line; experiment: Cell associated (bound) fraction of [177Lu]Lu-labeled peptide in Calu-6 cells; type: cell-based, Human; settings: 1 hour, 37° C.
How it was run: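 Detached B7-H3-expressing human lung cancer cells at 5 million/mL were exposed for 1 hour at 37 °C to 0.8 μCi of the 177Lu-labelled peptide, which was formulated in 1% PBSA after labelling at 80 °C, pH ~5. Supernatant and two cold washes counted as unbound, and resuspended cells gamma-counted as the cell-associated fraction.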

[2] = tested on: Calu-6 cell line; experiment: Net internalization of [177Lu]Lu-labeled peptide in Calu-6 cells; type: cell-based, Human; settings: 1 hour, 37° C., glycine pH 2.5 acid wash
How it was run: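 Calu-6 cells, human non-engineered lung cancer expressing B7-H3, resuspended in 1% PBSA at 5 million cells/mL and incubated with the 177Lu-labeled conjugate (labeled at 80 °C, pH ~5, RP-HPLC checked). Gamma counting of the bound fraction, then of the pellet after two glycine pH 2.5 acid strips and NaOH lysis, gives internalized activity.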

[3] = biological target: T1, human 4lg B7-H3 (Homo sapiens, UniProt Q5ZPR3); experiment: Affinity determination by surface plasmon resonance (SPR) to 4Ig B7-H3; settings: 4Ig B7-H3
T1 sequence (Q5ZPR3 29-534): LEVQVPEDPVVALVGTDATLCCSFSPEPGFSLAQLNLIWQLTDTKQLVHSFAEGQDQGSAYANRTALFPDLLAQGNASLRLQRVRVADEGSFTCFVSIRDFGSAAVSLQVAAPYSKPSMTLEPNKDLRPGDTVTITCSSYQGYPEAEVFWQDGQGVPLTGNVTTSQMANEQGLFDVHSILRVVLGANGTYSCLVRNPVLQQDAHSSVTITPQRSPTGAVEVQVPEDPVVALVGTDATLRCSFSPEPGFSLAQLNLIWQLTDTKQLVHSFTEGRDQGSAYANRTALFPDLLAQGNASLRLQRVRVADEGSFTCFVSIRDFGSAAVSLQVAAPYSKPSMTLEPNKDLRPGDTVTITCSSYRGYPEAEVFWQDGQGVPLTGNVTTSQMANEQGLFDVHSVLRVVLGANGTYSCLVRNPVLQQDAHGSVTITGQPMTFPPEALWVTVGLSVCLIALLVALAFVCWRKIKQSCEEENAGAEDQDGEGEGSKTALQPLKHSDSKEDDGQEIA

[4] = read-out: SPR KD—25° C., 25° C. flow cell temperature
[5] = read-out: SPR KD—37° C., 37° C. flow cell temperature

SMILES: CC(=O)N[C@@H](CCC(C)C)C(=O)N[C@@H](Cc1ccc(O)cc1)C(=O)N[C@H]1CSSC[C@@H](C(=O)N[C@@H](Cc2c[nH]c3ccc(F)cc23)C(=O)N[C@@H](Cc2ccccc2)C(=O)N2CCC[C@H]2C(=O)N[C@H](CCCCNC(=O)CN2CCN(CC(=O)O)CCN(CC(=O)O)CCN(CC(=O)O)CC2)C(N)=O)NC(=O)[C@H](Cc2ccc(O)cc2)NC(=O)[C@H](C(C)C)NC(=O)[C@H](CC(=O)O)NC(=O)[C@H](Cc2ccc(C(=O)O)cc2)NC(=O)[C@H](CC2CCNCC2)NC(=O)CNC(=O)[C@H](C(C)C)NC1=O [compound 286, Ac-hLeu-Y-C-V-G-PipAla-4COOHPhe-D-V-Y-C-5FW-F-Pro-dLys(DOTA)-CONH2] (Ac-[hLeu]YCVG[Ala(piperidin-4-yl)][Phe(4-COOH)]DVYC[Trp(5-F)]FP[dK](DOTA)-NH2; disulfide 3-11)
- % cell associated fraction [1]: C (%>50)
- % net internalization [2]: A (%≤25)
- pKd [3, 4]: > 9.00
- pKd [3, 5]: 8.00 to 9.00

SMILES: CC(=O)N[C@@H](CCC(C)C)C(=O)N[C@@H](Cc1ccc(O)cc1)C(=O)N[C@H]1CSSC[C@@H](C(=O)N[C@@H](Cc2c[nH]c3ccc(F)cc23)C(=O)N[C@@H](Cc2ccccc2)C(=O)N[C@H](C(=O)N[C@H](CCCCNC(=O)CN2CCN(CC(=O)O)CCN(CC(=O)O)CCN(CC(=O)O)CC2)C(N)=O)[C@@H](C)O)NC(=O)[C@H](Cc2ccc(O)cc2)NC(=O)[C@H](C(C)C)NC(=O)[C@H](CC(=O)O)NC(=O)[C@H](Cc2ccc(O)cc2)NC(=O)[C@H](CCCCN)NC(=O)CNC(=O)[C@H](C(C)C)NC1=O [compound 73, Ac-hLeu-Y-C-V-G-K-Y-D-V-Y-C-5FW-F-Thr-dLys(DOTA)-CONH2] (Ac-[hLeu]YCVGKYDVYC[Trp(5-F)]FT[dK](DOTA)-NH2; disulfide 3-11)
- % cell associated fraction [1]: C (%>50)
- % net internalization [2]: A (%≤25)
- pKd [3, 4]: > 9.00

SMILES: CC(=O)N[C@@H](CCC(C)C)C(=O)N[C@@H](Cc1ccc(O)cc1)C(=O)N[C@H]1CSSC[C@@H](C(=O)N[C@@H](Cc2cccc3ccccc23)C(=O)N[C@@H](Cc2ccccc2)C(=O)N[C@H](C(=O)N[C@H](CCCCNC(=O)CN2CCN(CC(=O)O)CCN(CC(=O)O)CCN(CC(=O)O)CC2)C(=O)O)C(C)(C)O)NC(=O)[C@H](Cc2ccc(O)cc2)NC(=O)[C@H](C(C)C)NC(=O)[C@H](CC(=O)O)NC(=O)[C@H](CC2CCOCC2)NC(=O)[C@H](CC2CCNCC2)NC(=O)CNC(=O)[C@H](C(C)(C)C)NC1=O [compound 436, Ac-hLeu-Y-C-Tbg-G-PipAla-ThpA-D-V-Y-C-1Nal-F-hydroxyVal-dLys(DOTA)-COOH] (Ac-[hLeu]YC[Tle]G[Ala(piperidin-4-yl)][Ala(4-THP)]DVYC[1Nal]F[Val(3-OH)][dK](DOTA)-OH; disulfide 3-11)
- % cell associated fraction [1]: B (25<%≤50)
- % net internalization [2]: A (%≤25)
- pKd ([3]; SPR KD—37° C., 37° C. flow cell temperature): > 9.00

SMILES: CC(=O)N[C@@H](CCC(C)C)C(=O)N[C@@H](Cc1ccc(O)cc1)C(=O)N[C@H]1CSSC[C@@H](C(=O)N[C@@H](Cc2c[nH]c3ccc(F)cc23)C(=O)N[C@@H](Cc2ccccc2)C(=O)N[C@H](C(=O)N[C@H](CCCCNC(=O)CN2CCN(CC(=O)O)CCN(CC(=O)O)CCN(CC(=O)O)CC2)C(N)=O)[C@H](C)O)NC(=O)[C@H](Cc2ccc(O)cc2)NC(=O)[C@H](C(C)C)NC(=O)[C@H](CC(=O)O)NC(=O)[C@H](Cc2ccc(O)cc2)NC(=O)[C@H](CCCCN)NC(=O)CNC(=O)[C@H](C(C)C)NC1=O [compound 162, Ac-hLeu-Y-C-V-G-K-Y-D-V-Y-C-5FW-F-alloThr-dLys(DOTA)-CONH2] (Ac-[hLeu]YCVGKYDVYC[Trp(5-F)]F[aThr][dK](DOTA)-NH2; disulfide 3-11)
- % cell associated fraction [1]: B (25<%≤50)
- % net internalization [2]: A (%≤25)
- pKd [3, 4]: > 9.00

SMILES: CC(=O)N[C@@H](CCC(C)C)C(=O)N[C@@H](Cc1ccc(O)cc1)C(=O)N[C@H]1CSSC[C@@H](C(=O)N[C@@H](Cc2c[nH]c3ccc(F)cc23)C(=O)N[C@@H](Cc2ccccc2)C(=O)N[C@H](C(=O)N[C@H](CCCCNC(=O)CN2CCN(CC(=O)O)CCN(CC(=O)O)CCN(CC(=O)O)CC2)C(=O)O)C(C)(C)O)NC(=O)[C@H](Cc2ccc(O)cc2)NC(=O)[C@H](C(C)C)NC(=O)[C@H](CC(=O)O)NC(=O)[C@H](CC2CCOCC2)NC(=O)[C@H](CCCCN)NC(=O)CNC(=O)[C@H](C(C)(C)C)NC1=O [compound 303, Ac-hLeu-Y-C-Tbg-G-K-ThpA-D-V-Y-C-5FW-F-hydroxyVal-dLys(DOTA)-COOH] (Ac-[hLeu]YC[Tle]GK[Ala(4-THP)]DVYC[Trp(5-F)]F[Val(3-OH)][dK](DOTA)-OH; disulfide 3-11)
- % cell associated fraction [1]: C (%>50)
- % net internalization [2]: B (25<%≤50)
- pKd [3, 4]: > 9.00
- pKd [3, 5]: > 9.00

SMILES: CC(=O)N[C@@H](CCC(C)C)C(=O)N[C@@H](Cc1ccc(O)cc1)C(=O)N[C@H]1CSSC[C@@H](C(=O)N[C@@H](Cc2c[nH]c3ccc(F)cc23)C(=O)N[C@@H](Cc2ccccc2)C(=O)N[C@H](C(=O)N[C@H](C)C(=O)O)C(C)(C)O)NC(=O)[C@H](Cc2ccc(O)cc2)NC(=O)[C@H](C(C)C)NC(=O)[C@H](CC(=O)O)NC(=O)[C@H](CC2CCN(C(=O)CCOCCOCCOCCOCCNC(=O)CN3CCN(CC(=O)O)CCN(CC(=O)O)CCN(CC(=O)O)CC3)CC2)NC(=O)[C@H](CC2CCNCC2)NC(=O)CNC(=O)[C@H](C(C)(C)C)NC1=O [compound 455, Ac-hLeu-Y-C-Tbg-G-PipAla-Pip(PEG4-DOTA)Ala-D-V-Y-C-5FW-F-hydroxyVal-dAla-COOH] (Ac-[hLeu]YC[Tle]G[Ala(piperidin-4-yl)][Ala(piperidin-4-yl)]([PEG4-DOTA])DVYC[Trp(5-F)]F[Val(3-OH)][dA]-OH; disulfide 3-11)
- % cell associated fraction [1]: C (%>50)
- % net internalization [2]: B (25<%≤50)
- pKd [3, 5]: > 9.00

SMILES: CC(=O)N[C@@H](CCC(C)C)C(=O)N[C@@H](Cc1ccc(O)cc1)C(=O)N[C@H]1CSSC[C@@H](C(=O)N[C@@H](Cc2cccc3ccccc23)C(=O)N[C@@H](Cc2ccccc2)C(=O)N2CCC[C@H]2C(N)=O)NC(=O)[C@H](Cc2ccc(O)cc2)NC(=O)[C@H](C(C)C)NC(=O)[C@H](CC(=O)O)NC(=O)[C@H](Cc2ccncc2)NC(=O)[C@H](CCCCNC(=O)CC[C@H](NC(=O)CN2CCN(CC(=O)O)CCN(CC(=O)O)CCN(CC(=O)O)CC2)C(=O)O)NC(=O)CNC(=O)[C@H](C(C)(C)C)NC1=O [compound 252, Ac-hLeu-Y-C-Tbg-G-Lys(gE-DOTA)-4PyA-D-V-Y-C-1Nal-F-Pro-CONH2] (Ac-[hLeu]YC[Tle]GK([γGlu-DOTA])[4Pal]DVYC[1Nal]FP-NH2; disulfide 3-11)
- % cell associated fraction [1]: B (25<%≤50)
- % net internalization [2]: A (%≤25)
- pKd ([3]; SPR KD—25° C., 25° C. flow cell temperature): 8.00 to 9.00

SMILES: CC(=O)N[C@@H](CCC(C)C)C(=O)N[C@@H](Cc1ccc(O)cc1)C(=O)N[C@H]1CSSC[C@@H](C(=O)N[C@@H](Cc2c[nH]c3ccc(F)cc23)C(=O)N[C@@H](Cc2ccccc2)C(=O)N[C@H](C(=O)N[C@H](CCCCNC(=O)CN2CCN(CC(=O)O)CCN(CC(=O)O)CCN(CC(=O)O)CC2)C(N)=O)[C@@H](C)O)NC(=O)[C@H](Cc2ccc(O)cc2)NC(=O)[C@H](C2CCCCC2)NC(=O)[C@H](CC(=O)O)NC(=O)[C@H](Cc2ccc(O)cc2)NC(=O)[C@H](CCCCN)NC(=O)CNC(=O)[C@H](C(C)C)NC1=O [compound 215, Ac-hLeu-Y-C-V-G-K-Y-D-ChG-Y-C-5FW-F-Thr-dLys(DOTA)-CONH2] (Ac-[hLeu]YCVGKYD[Chg]YC[Trp(5-F)]FT[dK](DOTA)-NH2; disulfide 3-11)
- % cell associated fraction [1]: C (%>50)
- % net internalization [2]: A (%≤25)
- pKd [3, 4]: > 9.00

SMILES: CC(=O)N[C@@H](CCC1CCC1)C(=O)N[C@@H](Cc1ccc(O)cc1)C(=O)N[C@H]1CSSC[C@@H](C(=O)N[C@@H](Cc2c[nH]c3ccc(F)cc23)C(=O)N[C@@H](Cc2ccccc2)C(=O)N[C@H](C(=O)N[C@H](CCCCNC(=O)CN2CCN(CC(=O)O)CCN(CC(=O)O)CCN(CC(=O)O)CC2)C(=O)O)C(C)(C)O)NC(=O)[C@H](Cc2ccc(O)cc2)NC(=O)[C@H](C(C)C)NC(=O)[C@H](CC(=O)O)NC(=O)[C@H](CC2CCOCC2)NC(=O)[C@H](CCCCN)NC(=O)CNC(=O)[C@H](C(C)(C)C)NC1=O [compound 398, Ac-hCba-Y-C-Tbg-G-K-ThpA-D-V-Y-C-5FW-F-hydroxyVal-dLys(DOTA)-COOH] (Ac-[X3]YC[Tle]GK[Ala(4-THP)]DVYC[Trp(5-F)]F[Val(3-OH)][dK](DOTA)-OH; disulfide 3-11)
- % cell associated fraction [1]: B (25<%≤50)
- % net internalization [2]: A (%≤25)
- pKd [3, 5]: > 9.00
